Data taken from PubChem BioAssay (NCI).
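Where inhibition never reached the appropriate level, the endpoint shown equals the highest concentration tested. Otherwise, values were interpolated linearly from a five-concentration, 48-hour dose response in 96-well plates. TGI: concentration producing complete growth inhibition.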

How the values were obtained:
Assay in all cases: NCI tumour cell line growth inhibition, 48 h
786-0 renal = tested on: 786-0 renal
A549 NSCLC = tested on: A549 NSCLC
ACHN renal = tested on: ACHN renal
CAKI-1 renal = tested on: CAKI-1 renal
CCRF-CEM leukemia = tested on: CCRF-CEM leukemia
COLO 205 colon = tested on: COLO 205 colon
DLD-1 colon = tested on: DLD-1 colon
DMS 114 small cell lung = tested on: DMS 114 small cell lung
DMS 273 small cell lung = tested on: DMS 273 small cell lung
EKVX NSCLC = tested on: EKVX NSCLC
HCC-2998 colon = tested on: HCC-2998 colon
HCT-116 colon = tested on: HCT-116 colon
HCT-15 colon = tested on: HCT-15 colon
HL-60(TB) leukemia = tested on: HL-60(TB) leukemia
HOP-18 NSCLC = tested on: HOP-18 NSCLC
HOP-62 NSCLC = tested on: HOP-62 NSCLC
HT29 colon = tested on: HT29 colon
K-562 leukemia = tested on: K-562 leukemia
KM20L2 colon = tested on: KM20L2 colon
LOX IMVI melanoma = tested on: LOX IMVI melanoma
LXFL 529 NSCLC = tested on: LXFL 529 NSCLC
M14 melanoma = tested on: M14 melanoma
M19-MEL melanoma = tested on: M19-MEL melanoma
MALME-3M melanoma = tested on: MALME-3M melanoma
MOLT-4 leukemia = tested on: MOLT-4 leukemia
NCI-H226 lung = tested on: NCI-H226 lung
NCI-H23 lung = tested on: NCI-H23 lung
NCI-H460 lung = tested on: NCI-H460 lung
NCI-H522 lung = tested on: NCI-H522 lung
OVCAR-3 ovarian = tested on: OVCAR-3 ovarian
OVCAR-4 ovarian = tested on: OVCAR-4 ovarian
OVCAR-8 ovarian = tested on: OVCAR-8 ovarian
RPMI-8226 leukemia = tested on: RPMI-8226 leukemia
RXF 393 renal = tested on: RXF 393 renal
SF-268 CNS = tested on: SF-268 CNS
SF-295 CNS = tested on: SF-295 CNS
SF-539 CNS = tested on: SF-539 CNS
SK-MEL-28 melanoma = tested on: SK-MEL-28 melanoma
SK-MEL-5 melanoma = tested on: SK-MEL-5 melanoma
SK-OV-3 ovarian = tested on: SK-OV-3 ovarian
SN12C renal = tested on: SN12C renal
SNB-19 CNS = tested on: SNB-19 CNS
SNB-75 CNS = tested on: SNB-75 CNS
SNB-78 CNS = tested on: SNB-78 CNS
SR leukemia = tested on: SR leukemia
SW-620 colon = tested on: SW-620 colon
TK-10 renal = tested on: TK-10 renal
U251 CNS = tested on: U251 CNS
UACC-257 melanoma = tested on: UACC-257 melanoma
UACC-62 melanoma = tested on: UACC-62 melanoma
UO-31 renal = tested on: UO-31 renal
XF 498 CNS = tested on: XF 498 CNS

Measured: TGI

CCc1c(Cc2[nH]c(Cc3[nH]c(C=O)c(C)c3CC)c(CC)c2CC)[nH]c(C=O)c1C
> 1 µM: NCI-H23 lung | OVCAR-4 ovarian | UACC-257 melanoma
> 100 µM: all other assays above
